Measured values from patent publication EP1343508B1, “USE OF AN OESTROGEN IN THE MANUFACTURE OF A COMPOSITION CONTAINING OESTROGEN FOR THE TREATMENT OF ATROPHIC VAGINITIS” (Novo Nordisk Femcare AG, priority 2000, dated 2002).
Where “and” joins values, the source holds several entries; their conditions need not be identical. Equal values may be shown once. Marks after values point to notes of the source that are not given here.

How the values were obtained:
[1] = test system: superficial vaginal and urethral cells; experiment: Superficial vaginal and urethral cells taken together, subjects per category, Example 3; assay type: in vivo, postmenopausal women; settings: for percentage of subjects with both superficial vaginal and urethral cells less than or equal to 5% / subjects with percentages of both superficial vaginal and urethral cells less than or equal to 5%: Week 0; for percentage of subjects with increases in percentages of both superficial vaginal and urethral cells / subjects with increases in percentages of both superficial vaginal and urethral cells: Week 12
Experimental: (§1) Efficacy was measured with composite scores of vaginal symptoms (dryness, soreness, and irritation) and vaginal health (secretions, epithelial integrity, surface thickness, and pH). Vaginal and urethral cytology analyses were also performed, and the vaginal maturation value was determined. Safety assessments included endometrial biopsies.
(§2) All vaginal tablets were identical in appearance. Patients inserted 1 tablet daily for 14 days. Thereafter, patients inserted 1 tablet twice per week (Sunday and Thursday) for the remainder of the trial. Patients were to insert the tablets at the same time each day (preferably at bedtime). Patients were evaluated for efficacy and safety at Week - 4 (screening), Week 0 (baseline), and Weeks 2, 7, and 12.
(§3) Vaginal and urethral cell samples were harvested and analyzed by independent cytologists to determine the percentages of parabasal, intermediate, and superficial cells. Maturation values were calculated according to the following equation: maturation value = 1.0 × [superficial cells, %] + 0.5 × [intermediate cells, %] [formula] Endometrial biopsies were performed at the end of the study in patients with intact uteri. The number of patients with abnormal biopsies was compared between treatment groups.

vaginal mucosal cells = experiment: Maturation value of vaginal mucosal cells, Example 2; assay type: in vivo, postmenopausal women
Experimental: Maturation values of vaginal mucosal cells were assessed as an indicator of changes in the condition of the vaginal mucosa in response to treatment.
(§4) After the screening visit, patients received no study treatment during the 4-week run-in period prior to the baseline visit. […] The vaginal tablets were identical in appearance. Patients inserted 1 tablet intravaginally, once daily for the initial 2 weeks of the study and then twice per week (Sunday and Thursday) for the remaining 10 weeks. Patients were instructed to use their medication at a consistent time each day, preferably in the morning.
Upon presentation to the clinic for each visit, a vaginal cytology specimen was obtained. Patients then inserted the tablets. […] The blood samples obtained at 30 minutes before insertion, and at 6, 12, and 24 hours after insertion were also used to determine the FSH concentration via immunoradiometric assay. […]

[2] = test system: superficial vaginal cells; experiment: Vaginal cytology, percentage of superficial cells, Example 3; assay type: in vivo, postmenopausal women
Experimental: as §1, §2, §3

[3] = 24-hour serum estradiol profile after vaginal tablet insertion (radioimmunoassay), Example 2; assay type: in vivo, postmenopausal women; settings: for patients with areas under the curve below 600 pg hr/mL at both time points / percentage of patients with areas under the curve below 600 pg hr/mL at both time points: weeks 0 and 12; for Maximal concentration / Time to maximal concentration: mean ± SD
Source text: as §4
Upon presentation to the clinic for each visit, a vaginal cytology specimen was obtained. Patients then inserted the tablets. […] The blood samples obtained at 30 minutes before insertion, and at 6, 12, and 24 hours after insertion were also used to determine the FSH concentration via immunoradiometric assay.
Data for area under the curve and maximal concentration were converted to a logarithmic scale, and changes from first dose (at the baseline visit) in the logarithmic values were estimated using 95% confidence intervals derived from paired t-tests. […] Differences within treatment groups in FSH concentration were determined using the Wilcoxon signed rank test based on changes from baseline in mean concentrations at weeks 2 and 12. Mean concentrations were defined as the average concentrations obtained at 30 minutes before tablet insertion and 6, 12, and 24 hours after insertion.

[4] = test system: postmenopausal women with atrophic vaginitis; experiment: Vaginal symptom composite score (dryness, soreness, irritation), Example 3; assay type: in vivo; settings: scale 0-3
Experimental: Efficacy was measured with composite scores of vaginal symptoms (dryness, soreness, and irritation) and vaginal health (secretions, epithelial integrity, surface thickness, and pH). Vaginal and urethral cytology analyses were also performed, and the vaginal maturation value was determined. Safety assessments included endometrial biopsies. […] All vaginal tablets were identical in appearance. Patients inserted 1 tablet daily for 14 days. Thereafter, patients inserted 1 tablet twice per week (Sunday and Thursday) for the remainder of the trial. Patients were to insert the tablets at the same time each day (preferably at bedtime). Patients were evaluated for efficacy and safety at Week - 4 (screening), Week 0 (baseline), and Weeks 2, 7, and 12. Efficacy assessments included patient ratings of atrophic vaginitis symptoms, investigator ratings of vaginal health, and vaginal and urethral cytology. Patients used intensity ratings of none, mild, moderate, or severe to evaluate atrophic vaginitis symptoms (dryness, soreness, irritation, dyspareunia, and vaginal discharge). Intensity ratings were assigned ascending scores from 0 (none) to 3 (severe) for analysis. A composite score for atrophic vaginitis symptoms was defined as the average of the individual symptom scores for dryness, soreness, and irritation. […] The composite score and the change from baseline for the composite score were examined at each time point. Differences within and between treatment groups were analyzed using an analysis of variance (ANOVA). […] Efficacy was measured with composite scores of vaginal symptoms (dryness, soreness, and irritation) and vaginal health (secretions, epithelial integrity, surface thickness, and pH). Vaginal and urethral cytology analyses were also performed, and the vaginal maturation value was determined. Safety assessments included endometrial biopsies. […] Patients were evaluated for efficacy and safety at Week - 4 (screening), Week 0 (baseline), and Weeks 2, 7, and 12. […] Differences within and between treatment groups were analyzed using an analysis of variance (ANOVA).

[5] = 10 µg E2 vaginal tablet, Week 0
[6] = 10 µg E2 vaginal tablet, Week 12
[7] = 25 µg E2 vaginal tablet, Week 0
[8] = 25 µg E2 vaginal tablet, Week 12

C[C@]12CC[C@@H]3c4ccc(O)cc4CC[C@H]3[C@@H]1CC[C@@H]2O [E2, 17β-estradiol]
percentage of subjects with both superficial vaginal and urethral cells less than or equal to 5% ([1]; 10 µg E2): 85% | subjects with percentages of both superficial vaginal and urethral cells less than or equal to 5% ([1]; 10 µg E2): 53 subjects | percentage of subjects with increases in percentages of both superficial vaginal and urethral cells ([1]; 10 µg E2): 71% | subjects with increases in percentages of both superficial vaginal and urethral cells ([1]; 10 µg E2): 44 subjects | percentage of subjects with both superficial vaginal and urethral cells less than or equal to 5% ([1]; 25 µg E2): 81% | subjects with percentages of both superficial vaginal and urethral cells less than or equal to 5% ([1]; 25 µg E2): 57 subjects | percentage of subjects with increases in percentages of both superficial vaginal and urethral cells ([1]; 25 µg E2): 74% | subjects with increases in percentages of both superficial vaginal and urethral cells ([1]; 25 µg E2): 52 subjects | maturation value, Mean ± SD (vaginal mucosal cells; 10 µg E2, Week 0 (baseline)): 51.0 and 51.0 ± 6.2 | maturation value, Mean change ± SD from baseline (vaginal mucosal cells; 10 µg E2, Week 12): 11.2 ± 17.8^b | maturation value, Mean ± SD (vaginal mucosal cells; 10 µg E2, Week 12): 62.2 ± 15.7 | patients with increases in maturation values from baseline (vaginal mucosal cells; 10 µg E2, Week 12): 14 patients | percentage of patients with increases in maturation values from baseline (vaginal mucosal cells; 10 µg E2, Week 12): 64% | maturation value, Mean ± SD (vaginal mucosal cells; 25 µg E2, Week 0 (baseline)): 52.4 and 53.4 and 52.4 ± 7.1 | maturation value, Mean change ± SD from baseline (vaginal mucosal cells; 25 µg E2, Week 12): 7.0 ± 8.7^b | maturation value, Mean ± SD (vaginal mucosal cells; 25 µg E2, Week 12): 58.4 ± 7.5 | patients with increases in maturation values from baseline (vaginal mucosal cells; 25 µg E2, Week 12): 13 patients | percentage of patients with increases in maturation values from baseline (vaginal mucosal cells; 25 µg E2, Week 12): 68% | percentage of superficial vaginal cells, Mean ([2]; 10 µg E2, Week 0): 3.1% | percentage of superficial vaginal cells, Mean ([2]; 10 µg E2, Week 2): 28.3% | percentage of superficial vaginal cells, mean Change from baseline ([2]; 10 µg E2, Week 2): 25.0^a % | percentage of superficial vaginal cells, mean Change from baseline ([2]; 10 µg E2, Week 7): 17.1% | percentage of superficial vaginal cells, mean Change from baseline ([2]; 10 µg E2, Week 12): 16.9^d % | percentage of superficial vaginal cells, Mean ([2]; 25 µg E2, Week 0): 4.0% | percentage of superficial vaginal cells, Mean ([2]; 25 µg E2, Week 2): 34.2% | percentage of superficial vaginal cells, mean Change from baseline ([2]; 25 µg E2, Week 2): 30.7^a % | percentage of superficial vaginal cells, Mean ([2]; 25 µg E2, Week 7): 28.2% | percentage of superficial vaginal cells, mean Change from baseline ([2]; 25 µg E2, Week 7): 23.9^b,c % | percentage of superficial vaginal cells, mean Change from baseline ([2]; 25 µg E2, Week 12): 15.4% | patients with areas under the curve below 600 pg hr/mL at both time points ([3]; 10 µg E2): 22 patients | percentage of patients with areas under the curve below 600 pg hr/mL at both time points ([3]; 10 µg E2): 96% | Serum concentration over 24 hours [3, 5]: 0.015 ng/mL | Maximal concentration [3, 5]: 35 ± 17 pg/mL | Area under the curve ([3]; 10 µg E2 vaginal tablet, Week 0, serum E2, mean ± SD): 0.349 ± 0.107 ng·h/mL | Serum concentration over 24 hours [3, 6]: 0.011 ng/mL | Maximal concentration [3, 6]: 22 ± 17 pg/mL | Time to maximal concentration [3, 6]: 10 ± 8 h | Area under the curve ([3]; 10 µg E2 vaginal tablet, Week 12, serum E2, mean ± SD): 0.264 ± 0.12 ng·h/mL | patients with areas under the curve below 600 pg hr/mL at both time points ([3]; 25 µg E2): 14 patients | percentage of patients with areas under the curve below 600 pg hr/mL at both time points ([3]; 25 µg E2): 74% | Serum concentration over 24 hours [3, 7]: 0.022 ng/mL | Time to maximal concentration [3, 7]: 15 ± 9 h | Area under the curve ([3]; 25 µg E2 vaginal tablet, Week 0, repeated Table 2): 538000 ± 265000 ng·h/mL | Area under the curve ([3]; 25 µg E2 vaginal tablet, Week 0, serum E2, mean ± SD): 0.538 ± 0.265 ng·h/mL | Serum concentration over 24 hours [3, 8]: 0.023 ng/mL | Time to maximal concentration [3, 8]: 13 ± 6 h | Area under the curve ([3]; 25 µg E2 vaginal tablet, Week 12, serum E2, mean ± SD): 0.563 ± 0.341 ng·h/mL | vaginal symptom composite score ([4]; 10 µg E2, Week 12): ~0.6 | vaginal symptom composite score ([4]; 25 µg E2, Week 12): approximately 0.5 | vaginal symptom composite score ([4]; each treatment group (25 or 10 µg E2), Week 0 (baseline)): approximately 1.9
